The results in this text go back to patent publication US12053459B2, “CDK2 inhibitors and methods of using the same” (Cedilla Therapeutics, Inc., priority 2021, dated 2024).

pIC50: −log10 of the molar value.

For assay [1], the system named is Kuramochi cells. In words: BrdU cell proliferation assay (colorimetric ELISA), Kuramochi cells. The assay is classed as cell-based. Particulars: class symbols A-D. In outline:
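Proliferation was read as BrdU incorporation: a 1 h pulse, then fixation and peroxidase-antibody ELISA at 450 nm, with values normalized to DMSO after empty-well subtraction. Treatment lasted 4 days on Kuramochi cells seeded at 2,000/well, using four 3-fold compound dilutions from 10 mM stocks. RB^KO Kuramochi cells were run in parallel for specificity.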
(In general: In an ELISA, binding on a coated surface is turned into a signal by an enzyme label.)

Assay [2] addresses T1, CDK2/Cyclin E1(14-475) (Homo sapiens, UniProt P24941). Description: HotSpot kinase inhibition assay (radiometric, Reaction Biology Corporation). Particulars: 10 μM ATP, class symbols A-D. It is filed as biochemical. The procedure:
Inhibition of a select panel of CDK2/CCNE1 activities in the presence of compounds of the present disclosure was evaluated using the HotSpot™ assay (proprietary to Reaction Biology Corporation). In the assay, activated CDK2/Cyclin E1 catalyzes the transfer of radioactive phosphate to amino acid residues of peptide or protein substrates, which are detected radiometrically. […] Reactions contained 20 mM HEPES pH 7.5, 10 mM MgCl2, 1 mM EGTA, 2 mM DTT, 0.02% Brij35, 0.02 mg/mL BSA, 0.1 mM Na3VO4, 1% DMSO, 1.5 nM CDK2/Cyclin E1(14-475), 10 μM ATP, and 20 μM Histone H1 protein isolated from calf thymus (Sigma).
CDK2/Cyclin E1 […] and Histone H1 were mixed in reaction buffer. To this mixture, was added dose titrations of inhibitor compounds in 100% DMSO by acoustic transfer. The compound mixtures were incubated for 20 minutes, then the kinase reactions were initiated by the addition of a mixture of ATP and ^33P ATP for final concentrations of 10 μM total ATP, 20 μM Histone H1, and 1.5 nM CDK2/Cyclin E1 (14-475). The reactions were carried out for 120 minutes, then spotted on a P81 ion exchange filter paper, and extensively washed with 0.75% phosphoric acid. The resulting radioactive counts were normalized to yield % activity, plotted against compound concentration, and fit to a four-parameter equation to determine the IC50 for each compound.

For assay [3], the target named is T1, CDK2/Cyclin E1(14-475). In words: Caliper LabChip EZ Reader mobility shift assay, inhibition of CDK2/Cyclin E1 activity. Particulars: class symbols A-D. The assay is classed as biochemical. An outline of the steps: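 Mobility-shift readout of fluorescent peptide (1.5 μM final) phosphorylation by 2.5 nM CDK2/Cyclin E1(14-475) at 100 μM ATP, pH 7.5. Compounds pre-incubated 30 min with enzyme before substrate addition; 100-min reaction halted by EDTA, normalized % activity fitted to four-parameter curve for IC50.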

By pIC50 is commonly meant the negative decadic logarithm of the IC50, by convention in mol/L.

Regarding `CNC(=O)[C@H](CCCc1ccccc1)NC(=O)C1CN(C(=O)Cc2c[nH]c3cc(Cl)ccc23)CC2CN(C(=O)c3ccc4[nH]c(C)cc4c3)CC21` (stereo partly shown) [I-2], the pIC50 in assay [1] is less than 5.00; in assay [2], 4.00 to 5.00.

For `CNC(=O)[C@H](CCCc1ccccc1)NC(=O)C1CN(C(=O)Cc2c[nH]c3cc(Cl)ccc23)CC2CN(C(=O)c3ccc4nccnc4c3)CC21` (stereo partly shown) [I-17], the pIC50 in assay [1] is less than 5.00; in assay [2], less than 4.00.

In the case of `CNC(=O)[C@H](CCCc1ccccc1)NC(=O)C1CN(C(=O)Cc2c[nH]c3cc(Cl)ccc23)CC2CN(C(=O)c3ccc(O)c(OC)c3)CC21` (stereo partly shown) [I-32], the negative-log IC50 (pIC50) was less than 5.00 in assay [1] and less than 4.00 in assay [2].

In the case of `CNC(=O)[C@H](CCCc1ccccc1)NC(=O)C1CN(C(=O)Cc2c[nH]c3cc(Cl)ccc23)CC2CN(C(=O)c3cccc(Oc4ccccc4)c3)CC21` (stereo partly shown) [I-35], the figures for the pIC50 in assay [1] and in assay [2] were less than 5.00 and less than 4.00, respectively.

In turn, `CCOc1cccc(C(=O)N2CC3CN(C(=O)Cc4c[nH]c5cc(Cl)ccc45)CC(C(=O)N[C@@H](CCCc4ccccc4)C(=O)NC)C3C2)c1` (stereo partly shown) [I-67] had a pIC50 in assay [2] of 4.00 to 5.00.

`CNC(=O)[C@H](Cc1ccccc1)NC(=O)C1CN(C(=O)Cc2c[nH]c3cc(Cl)ccc23)CC2CN(C(=O)c3ccc(OC(C)C)c(OC)c3)CC21` (stereo partly shown) [I-122] gave a negative-log IC50 (pIC50) in assay [2] of 4.00 to 5.00.

For `CNC(=O)[C@H](Cc1ccc(O)cc1)NC(=O)C1CN(C(=O)Cc2c[nH]c3cc(Cl)ccc23)CC2CN(C(=O)c3ccc(OC(C)C)c(OC)c3)CC21` (stereo partly shown) [I-123], the pIC50 in assay [2] is 4.00 to 5.00.

The molecule `CNC(=O)[C@H](C)NC(=O)C1CN(C(=O)Cc2c[nH]c3cc(Cl)ccc23)CC2CN(C(=O)c3ccc(OC(C)C)c(OC)c3)CC21` (stereo partly shown) [I-125] gave a pIC50 in assay [2] of 4.00 to 5.00.

In assay [2], `CNC(=O)[C@H](CCCc1ccccc1)NC(=O)C1CN(C(=O)Cc2c[nH]c3c(Cl)cccc23)CC2CN(C(=O)c3ccc(OC(C)C)c(OC)c3)CC21` (stereo partly shown) [I-222] gave a pIC50 of 5.00 to 6.00.

In assay [2], `CNC(=O)[C@H](CCCc1ccccc1)NC(=O)C1CN(C(=O)Cc2c[nH]c3cc(OC)ccc23)CC2CN(C(=O)c3ccc(OC(C)C)c(OC)c3)CC21` (stereo partly shown) [I-235] had a pIC50 of 5.00 to 6.00.

As to `COc1cc(C(=O)N2CC3CN(C(=O)Cc4c[nH]c5cc(Cl)ccc45)CC(C(=O)Nc4cncc(Cc5ccccc5)c4)C3C2)ccc1OC(C)C` (stereo not shown) [I-238, N-(5-benzylpyridin-3-yl)-5-(2-(6-chloro-1H-indol-3-yl)acetyl)-2-(4-isopropoxy-3-methoxybenzoyl)octahydro-1H-pyrrolo[3,4-c]pyridine-7-carboxamide], the pIC50 in assay [1] and in assay [3] was 5.30 to 6.30 in each case.

In the case of `COc1cc(C(=O)N2CC3CN(C(=O)Cc4c[nH]c5cc(Cl)ccc45)CC(C(=O)Nc4ccnc(Cc5ccccc5)c4)C3C2)ccc1OC(C)C` (stereo not shown) [I-239], the figures for the pIC50 in assay [1] and in assay [3] were less than 5.00 and 5.30 to 6.30, respectively.

With `COc1cc(C(=O)N2CC3CN(C(=O)Cc4c[nH]c5cc(Cl)ccc45)CC(C(=O)Nc4cncc(Oc5ccccc5)c4)C3C2)ccc1OC(C)C` (stereo not shown) [I-240], the negative logarithm of the IC50 (pIC50) in assay [1] is less than 5.00; in assay [3], 5.30 to 6.30.

`COc1cc(C(=O)N2CC3CN(C(=O)Cc4c[nH]c5cc(Cl)ccc45)CC(C(=O)Nc4ccc(Cc5ccccc5)nc4)C3C2)ccc1OC(C)C` (stereo not shown) [I-241]: the negative-log IC50 (pIC50) in assay [1] and in assay [3] was less than 5.00 throughout.

Consider `CNC(=O)[C@@H](NC(=O)C1CN(C(=O)Cc2c[nH]c3cc(Cl)ccc23)CC2CN(C(=O)c3ccc(OC4CC4)cc3)CC21)[C@@H](C)OCC1CCCCC1` (stereo partly drawn) [I-242, 5-(2-(6-chloro-1H-indol-3-yl)acetyl)-N-((2S,3R)-3-(cyclohexylmethoxy)-1-(methylamino)-1-oxobutan-2-yl)-2-(4-cyclopropoxybenzoyl)octahydro-1H-pyrrolo[3,4-c]pyridine-7-carboxamide], for which the pIC50 in assay [1] is less than 5.00; in assay [3], 5.30 to 6.30.

Turning to `C[C@H](OCc1ccc(F)cc1)[C@H](NC(=O)C1CN(C(=O)Cc2c[nH]c3cc(Cl)ccc23)CC2CN(C(=O)c3ccc(OC4CC4)cc3)CC21)C(N)=O` (stereo partly shown) [I-243], the pIC50 in assay [1] was less than 5.00; in assay [3] it was 5.30 to 6.30.

As to `C[C@@H](OCc1ccc(F)cc1)[C@H](NC(=O)C1CN(C(=O)Cc2c[nH]c3cc(Cl)ccc23)CC2CN(C(=O)c3ccc(OC4CC4)cc3)CC21)C(N)=O` (stereo partly shown) [I-244], the pIC50 in assay [1] and in assay [3] was less than 5.00 each time.

Consider `C[C@H](OCc1ccc(F)cc1)[C@@H](NC(=O)C1CN(C(=O)Cc2c[nH]c3cc(Cl)ccc23)CC2CN(C(=O)c3ccc(OC4CC4)cc3)CC21)C(N)=O` (stereo partly shown) [I-245], for which the pIC50 in assay [1] and in assay [3] was less than 5.00 each time.

Consider `C[C@@H](OCc1ccc(F)cc1)[C@@H](NC(=O)C1CN(C(=O)Cc2c[nH]c3cc(Cl)ccc23)CC2CN(C(=O)c3ccc(OC4CC4)cc3)CC21)C(N)=O` (stereo partly shown) [I-246], for which the pIC50 in assay [1] and in assay [3] was less than 5.00 throughout.

For the molecule `CNC(=O)[C@H](CCCc1ccccc1)NC(=O)C1CN(C(=O)Cc2c[nH]c3cc(OC)ccc23)CC2CN(C(=O)c3ccc(Cl)c(Cl)c3)CC21` (stereo partly drawn) [I-247, 2-(3,4-dichlorobenzoyl)-5-(2-(6-methoxy-1H-indol-3-yl)acetyl)-N—((S)-1-(methylamino)-1-oxo-5-phenylpentan-2-yl)octahydro-1H-pyrrolo[3,4-c]pyridine-7-carboxamide], the pIC50 in assay [1] and in assay [3] was less than 5.00 each time.

As to `CNC(=O)[C@H](CCCc1ccccc1)NC(=O)C1CN(C(=O)Cc2c[nH]c3cc(OC)ccc23)CC2CN(C(=O)c3ccc(C(F)(F)F)c(Cl)c3)CC21` (stereo partly shown) [I-248], the pIC50 in assay [1] and in assay [3] was less than 5.00 in each case.

As for `CNC(=O)[C@@H](NC(=O)C1CN(C(=O)Cc2c[nH]c3cc(Cl)ccc23)CC2CN(C(=O)c3cc(-c4ccccc4)n[nH]3)CC21)[C@H](C)OCC1CCCCC1` (stereo partly drawn) [I-249, 5-(2-(6-chloro-1H-indol-3-yl)acetyl)-N-((2S,3S)-3-(cyclohexylmethoxy)-1-(methylamino)-1-oxobutan-2-yl)-2-(3-phenyl-1H-pyrazole-5-carbonyl)octahydro-1H-pyrrolo[3,4-c]pyridine-7-carboxamide], the negative-log IC50 (pIC50) in assay [1] and in assay [3] was less than 5.00 each time.

`CNC(=O)[C@@H](NC(=O)C1CN(C(=O)Cc2c[nH]c3cc(Cl)ccc23)CC2CN(C(=O)c3cc(-c4ccccc4)n[nH]3)CC21)[C@H](C)OCc1ccccc1` (stereo partly shown) [I-250]: the results for the pIC50 in assay [1] and in assay [3] were less than 5.00 and 5.30 to 6.30, respectively.

Regarding `CNC(=O)[C@@H](NC(=O)C1CN(C(=O)Cc2c[nH]c3cc(Cl)ccc23)CC2CN(C(=O)c3cc(-c4ccccc4)n[nH]3)CC21)[C@@H](C)OCc1ccccc1` (stereo partly shown) [I-252], the pIC50 in assay [1] and in assay [3] was less than 5.00 each time.

With `CNC(=O)[C@H](CCCc1ccccc1)NC(=O)C1CN(C(=O)Cc2ccnc3ccccc23)CC2CN(C(=O)c3ccc(OC(C)C)c(OC)c3)CC21` (stereo partly drawn) [I-253, 2-(4-isopropoxy-3-methoxybenzoyl)-N—((S)-1-(methylamino)-1-oxo-5-phenylpentan-2-yl)-5-(2-(quinolin-4-yl)acetyl)octahydro-1H-pyrrolo[3,4-c]pyridine-7-carboxamide], the pIC50 in assay [1] and in assay [3] was less than 5.00 each time.

Consider `COC(=O)[C@@H](NC(=O)C1CN(C(=O)Cc2c[nH]c3cc(Cl)ccc23)CC2CN(C(=O)c3ccc(OC(C)C)c(OC)c3)CC21)[C@H](C)OCc1ccccc1` (stereo partly drawn) [I-255, methyl (2S,3S)-3-(benzyloxy)-2-(5-(2-(6-chloro-1H-indol-3-yl)acetyl)-2-(4-isopropoxy-3-methoxybenzoyl)octahydro-1H-pyrrolo[3,4-c]pyridine-7-carboxamido)butanoate], for which the figures for the pIC50 in assay [1] and in assay [3] were 5.30 to 6.30 and not below 6.30, respectively.
